Read-outs that look alike come from different tables or passages of the source.
Tests used:
[1] = tested on: HIV-1; type: cell-based
[2] = tested on: HIV-1; type: cell-based; remark: listed apart in the source
[3] = tested on: genes "GAG", "LTR" and "ENV" of the HIV-1 provirus; assay: Integration of viral genome into chromosomic DNA of Supt-1 cells (PCR); type: cell-based; settings: HIV-1 treated with 1/100 dilution
Method: By means of a genetic amplification through a thermostable polymerase, the presence of genes "GAG", "LTR" and "ENV" of the HIV-1 provirus is evidenced. This method is called P.C.R. Polymerase chain Reaction) (Chin-Yih Ou et al., Sciences 239, 295-297, 1988).
Said method is applied for detecting HIV-1 provirus in the genome of Supt-1 cells inoculated with HIV-1 virus incubated with […] (dilution 1/100), as described in Example 8
Amplified oligonucleotides, UV visible by means of ethidium bromide appear only in the tubes corresponding to an inoculation with HIV-1 viruses which were not treated with the active substance.
One proceeds as in Example 11(c). The search of genes "GAG", "LTR" and "ENV" has been made in cellular cultures inoculated with a virus incubated for 15 minutes with the active substance. This search is appeared as being negative, and thus it can be concluded that 1.1'-azobisformamide at the dosage of 35 μgr/ml protects the cells against infection by HIV-1.
Examples 10c and 11c disclose a more accurate method than the ELISA test for examining whether the inoculated cells contain HIV-1 at the end of the assay, i.e., the PCR-Method.

[4] = tested on: lymphocyte cellular lines; assay: Toxicity for human lymphocyte cellular lines; type: cell-based; settings: even after 24 hours
[5] = tested on: Supt-1 cells
[6] = tested on: Molt-3 cells infected by HTLVIII-B
[7] = tested on: human blood cell glutathione; settings: N. S. KOSOWER et al. (1969); cited from earlier work
[8] = in vitro; settings: human, supt-1 cells
[9] = in vitro; settings: human, molt-3 cells, % of dead cells
[10] = tested on: HIV strain of the patient; assay: Resistance of the patient's HIV strain (course of treatment; gene sequencing of viral RNA); settings: for genetic resistance of the patient's strain: mutations in codons 67, 70, 184, 215 and 219; for resistance, concomitant medication: patient of Example 27, DDI, then DDI and DDC
[11] = tested on: wild HIV-1 strains; assay: Phenotypic resistance of wild HIV-1 strains; type: cell-based; settings: strains marked * (Wild A, B, C, F, G)

In the case of CN(C)C(=O)N=NC(=O)N(C)C [1.1'-azobisdimethylformamide], the “effectiveness up to the 25th day” value [1] is reported as “effectiveness of this active substance is maintained”, the “infection of sound Supt-1 cells by treated HIV” value [1] is reported as “is not able to infect the sound Supt-1 cells” and the “protection of Supt-1 cells” value [1] is reported as “has this effect”. The cytopathogenic effect [2] was “no cytopathogenic effect was observed”, the “HIV-1 provirus within Supt-1 cells” value [3] was “totally absent” and the “toxicity for human lymphocyte cellular lines” value [4] was “no toxicity”. For the same molecule, the “cellular viability of Supt-1 cells” value [5] was “does not decrease the cellular viability”, the “toxicity against sound Supt-1 cells” value [5] was “no toxicity against sound Supt-1 cells” and the “toxicity for human Supt-1 cells” value [5] was “no toxicity”. For the same molecule, the “mortality of the infected cells” value ([6]; after 30 minutes, even at dilution 1/3000) was “mortality of the infected cells is doubled”, the “Number of dead cells” value ([6]; dilution 1/500, 1 min) was 9 and the “Number of living cells” value ([6]; dilution 1/500, 1 min) was 62. The “Number of dead cells” value ([6]; dilution 1/500, 10 min) was 11, the “Number of living cells” value ([6]; dilution 1/500, 10 min) was 67 and the “Number of dead cells” value ([6]; dilution 1/500, 30 min) was 12. The “Number of living cells” value ([6]; dilution 1/500, 30 min) was 58, the “Number of dead cells” value ([6]; dilution 1/1500, 30 min) was 15 and the “Number of living cells” value ([6]; dilution 1/1500, 30 min) was 70. For the same molecule, the “Number of dead cells” value ([6]; dilution 1/3000, 30 min) was 12, the “Number of living cells” value ([6]; dilution 1/3000, 30 min) was 58 and the “% of dead cells” value ([6]; human, molt-3 cells, 0.5 h) was 17.6%. For the same molecule, the “intracellular oxidising action on human blood cell glutathione” value [7] was “intracellular oxidising action on human blood cell glutathione”, the cytotoxicity at 0 h [8] was 26% and the cytotoxicity at 1 h [8] was 24%. The cytotoxicity at 5 h [8] was 28%, the cytotoxicity at 1 min [9] was 12.7% and the cytotoxicity at 10 min [9] was 14%. The cytotoxicity at 0.5 h [9] was 17.1%.
In the case of Nc1ccn([C@@H]2CS[C@H](CO)O2)c(=O)n1 [3TC], the “genetic resistance of the patient's strain” value (“genetic resistance” for short) [10] is reported as “genetically resistant”.
For Cc1cn([C@H]2C[C@H](N=[N+]=[N-])[C@@H](CO)O2)c(=O)[nH]c1=O [AZT, 3'-azido-3'-desoxythymidine], the “phenotypic resistance to AZT” value [11] was “Phenotypically resistant” and the “genetic resistance” value [10] was “genetically resistant”.
In the case of Nc1ccn([C@H]2CC[C@@H](CO)O2)c(=O)n1 [DDC], the “genetic resistance” value [10] is reported as “genetically resistant” and the “resistance, concomitant medication” value [10] is reported as “stopped because of resistance”.
With O=c1[nH]cnc2c1ncn2[C@H]1CC[C@@H](CO)O1 [DDI] the “genetic resistance” value [10] was “genetically resistant” and the “resistance, concomitant medication” value [10] was “stopped because of resistance”.
